In this assay the target is T1, LXRα (Homo sapiens, UniProt Q13133).
T1 construct: human LXRalpha (amino acid 205-447); expressed in transfected cells; host or cells: U2/OS osteosarcoma cells electroporated with pSGGAL-LXRalpha (pSG5 vector)
T1 sequence (Q13133 205-447): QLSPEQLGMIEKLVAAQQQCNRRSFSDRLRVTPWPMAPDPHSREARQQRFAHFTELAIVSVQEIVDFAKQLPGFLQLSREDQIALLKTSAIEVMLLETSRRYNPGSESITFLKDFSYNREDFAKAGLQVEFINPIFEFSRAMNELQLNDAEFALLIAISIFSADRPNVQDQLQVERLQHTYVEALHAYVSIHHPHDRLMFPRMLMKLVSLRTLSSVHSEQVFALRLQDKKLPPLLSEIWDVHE
The assay is described as follows: Transactivation (reporter gene) assay in U2/OS cells. Type of assay: cell-based. The settings on record: GAL4-LXRalpha LBD luciferase reporter, U2/OS osteosarcoma cells, 48 h. The protocol: Expression vectors were prepared by inserting the ligand binding domain cDNA (complementary DNA) of human LXRalpha (amino acid 205-447) and LXRbeta (amino acid 216-461) in frame with, 3′ to the yeast GAL4 transcription factor DNA binding domain and the nuclear localization signal from the T-antigen of Polyoma Virus in the eucaryotic expression vector pSG5 (Stratagene). The resulting expression vectors pSGGAL-LXRalpha and pSGGAL-LXRbeta were used in cotransfection experiments together with the pGL3 luciferase reporter plasmid containing a minimal SV40 promoter (Promega) and five copies of the UAS GAL4 recognition site. 2.5 μg pSGGAL-LXRalpha or beta were mixed with […] pGL3 5xUAS and 22.5 μg pBluscript (Stratagene) in 0.95 mL ice cold PBS containing approx. 4-9 milj. U2/OS osteosarcoma cells. After a five minute incubation on ice the cell/DNA mixture was electroporated in 0.4 cm cuvettes at 960 μF, 230 V using a BioRad electroporator and diluted to 0.32 milj cells/mL in complete DMEM [Dulbecco's Modified Eagle Medium w/o phenol red, (Gibco 11880-028) including 10% FBS (Foetal Bovine Serum), 1% PEST (Penicillin Streptomycin), 20 mM Hepes, 2 mM L-Glutamine and 0.36% Glucose Gibco 31966-021] medium. […] Luciferase activity was measured as Luminescence in the Wallac Victor reader after 15 min. incubation at room temperature. […]
On the technique in general: A reporter such as luciferase makes a cellular process visible.

Each structure is given as a SMILES string. pEC50: −log10 of the molar value.

`CCCCN1C(=S)C(Nc2ccc(OC(F)F)cc2)=C(c2ccccc2)S1(=O)=O` [Example 1, 2-Butyl-4-{[4-(difluoromethoxy)phenyl]amino}-5-phenylisothiazole-3(2H)-thione 1,1-dioxide] showed a pEC50 of 6.02.

For orientation: pEC50 means the EC50 on a negative log10 scale, so that one unit is a factor of ten.

The values above are taken from patent publication US20080125396A1, “Derivatives of Isothiazol-3(2H)-Thione 1,1-Dioxides as Liver X Receptor Modulators” (AtraZeneca AB, priority 2005, published 2008).
